The target in assay [1] is Mucolipin-3 (Homo sapiens, UniProt Q8TDD5). The assay is described as follows: Fluorescence counterscreen assay for […] agonists: dose response cell-based high-throughput screening assay to identify agonists of the transient receptor potential channel ML3 (TRPML3). [Related pubchem assays: 1424, 1448 ]. It counts as functional. In general terms: Counterscreens check selectivity or assay interference.

A short description of assay [2]: HEK-293T viability loss after treatment – luminescence, T-cell screen hits, cytotoxicity control for TCR NF-kB inhibitor project, dose response (AID 489026).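 Also: cells exposed to compound about 14 hours before the viability readout.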 It counts as functional, cell-based.
The target of assay [3] is Ion channel NompC (Danio rerio, UniProt Q7T1G6). The assay is described as follows: Dose response cell-based high-throughput screening assay for agonists of the transient receptor potential channel N1 (TRPN1). [Related pubchem assays (depositor defined):AID1424, AID1448]. The format is functional.
Assay [4] concerns the target Lysine-specific demethylase 4A (Homo sapiens, UniProt O75164). The assay is described as follows: inhibition of JMJD2A H3K9me3 demethylation – biochemical, DELFIA europium, cherry-picked samples, selectivity assay for GASC-1 inhibitor project, dose response (AID 488840).
For assay [5], the target named is T1, Polyadenylate-binding protein 1 (Homo sapiens, UniProt P11940). Kind of assay: MLLE binding blockers, Cy5 peptide tracer – biochemical, fluorescence polarization, Cy5-PAM2 peptide, secondary, miRNA deadenylation inhibitor project, dose response (AID 602260). It counts as functional. As to conditions: read-out: IC50_Mean.
Assay [6] addresses T1, Polyadenylate-binding protein 1. Kind of assay: MLLE domain peptide-binding blockers, IC50 – biochemical, fluorescence polarization, FITC-PAM2 peptide, dose response (AID 602259). It counts as functional. Conditions: read-out: IC50_Mean. A general note: Polarisation of emitted light reports the rotation of a fluorescent probe.
Assay [7] deals with T2, Hexokinase HKDC1 (Homo sapiens, UniProt Q2TB90).
T2 sequence (Q2TB90 whole entry): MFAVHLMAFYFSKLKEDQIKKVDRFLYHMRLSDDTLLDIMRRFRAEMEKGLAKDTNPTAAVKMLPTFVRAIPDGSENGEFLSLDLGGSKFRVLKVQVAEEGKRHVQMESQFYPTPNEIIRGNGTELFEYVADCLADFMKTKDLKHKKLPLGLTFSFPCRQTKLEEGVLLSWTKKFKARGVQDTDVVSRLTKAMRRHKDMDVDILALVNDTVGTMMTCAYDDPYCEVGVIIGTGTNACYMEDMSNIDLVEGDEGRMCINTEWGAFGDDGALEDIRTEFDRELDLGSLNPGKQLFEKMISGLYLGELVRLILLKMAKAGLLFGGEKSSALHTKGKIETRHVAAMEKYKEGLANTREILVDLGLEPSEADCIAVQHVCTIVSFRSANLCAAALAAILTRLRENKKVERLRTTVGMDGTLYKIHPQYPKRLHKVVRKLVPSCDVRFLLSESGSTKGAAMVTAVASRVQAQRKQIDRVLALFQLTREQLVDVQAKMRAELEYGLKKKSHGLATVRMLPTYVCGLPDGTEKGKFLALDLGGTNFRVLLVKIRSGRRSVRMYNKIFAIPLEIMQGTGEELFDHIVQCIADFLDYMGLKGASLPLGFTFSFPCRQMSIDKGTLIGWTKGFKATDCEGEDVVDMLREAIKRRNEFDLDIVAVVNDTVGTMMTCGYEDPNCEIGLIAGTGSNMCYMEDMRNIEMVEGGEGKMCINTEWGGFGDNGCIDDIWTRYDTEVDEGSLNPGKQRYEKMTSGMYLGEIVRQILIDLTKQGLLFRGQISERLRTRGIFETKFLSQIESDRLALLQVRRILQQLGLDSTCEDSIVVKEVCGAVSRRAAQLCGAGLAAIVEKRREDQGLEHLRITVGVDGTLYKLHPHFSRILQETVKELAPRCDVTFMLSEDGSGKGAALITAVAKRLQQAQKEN
The assay is described as follows: inhibition of HKDC1 glucose phosphorylation – biochemical, W721R variant, dose response (AID 504729). It counts as functional.

Assay [8] deals with T3, Runt-related transcription factor 1/Core-binding factor subunit beta (Homo sapiens, UniProt Q01196+Q13951). Kind of assay: disruptors of Runt domain/CBFb-SMMHC interaction – biochemical, FRET, Cerulean-Runt, Venus-CBFb-SMMHC, uHTS, […] (AID 1434). The format is protein assay.
The target in assay [9] is Protein Tat (Human immunodeficiency virus type 1 group M subtype B (isolate HXB2)(HIV-1), UniProt P04608). It counts as functional.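 Also: tat binding to TAR RNA read out by fluorescence polarization.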
Assay [10] addresses T3, Runt-related transcription factor 1/Core-binding factor subunit beta. The assay is described as follows: Runt domain/CBFb-SMMHC interaction disruptors – biochemical, TR-FRET (AID 1438). The format is protein assay. (Time-resolved FRET reads energy transfer from a long-lived donor to a nearby acceptor.)
Assay [11] addresses T4, Coagulation factor XII (Homo sapiens, UniProt P00748).
T4 sequence (P00748 whole entry): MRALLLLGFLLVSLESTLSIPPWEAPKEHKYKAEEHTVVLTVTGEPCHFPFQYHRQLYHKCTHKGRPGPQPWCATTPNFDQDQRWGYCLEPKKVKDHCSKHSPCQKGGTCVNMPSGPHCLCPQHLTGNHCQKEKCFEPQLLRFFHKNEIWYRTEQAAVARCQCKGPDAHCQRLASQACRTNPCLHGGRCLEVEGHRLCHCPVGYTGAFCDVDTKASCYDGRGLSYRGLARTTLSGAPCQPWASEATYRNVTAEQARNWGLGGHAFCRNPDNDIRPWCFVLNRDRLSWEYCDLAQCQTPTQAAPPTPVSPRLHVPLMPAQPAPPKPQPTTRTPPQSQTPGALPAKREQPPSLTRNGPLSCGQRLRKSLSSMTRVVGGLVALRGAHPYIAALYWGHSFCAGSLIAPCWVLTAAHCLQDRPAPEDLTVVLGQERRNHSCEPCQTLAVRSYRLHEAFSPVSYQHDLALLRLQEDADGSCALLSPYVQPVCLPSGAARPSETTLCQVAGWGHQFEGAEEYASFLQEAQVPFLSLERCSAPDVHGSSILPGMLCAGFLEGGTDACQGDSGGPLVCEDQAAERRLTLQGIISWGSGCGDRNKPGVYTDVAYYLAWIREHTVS
Kind of assay: Factor XIIa Dose Response Confirmation from Single Well HTS. [Related pubchem assays (depositor defined):AID701]. It counts as functional.

In assay [12] the target is Genome polyprotein (dengue virus type 2, UniProt P29990). Kind of assay: flavivirus cap methylation enzyme inhibition – biochemical, confirmation dose response, primary screen (AID 588689). The format is functional.
The target of assay [13] is Delta-type opioid receptor (Homo sapiens, UniProt P41143). Kind of assay: SAR Analysis of Agonists of the DOR Receptor using an Image-Based Assay - Set 3. [Related pubchem assays (depositor defined):AID1777, AID1786]. The format is functional.
Assay [14] addresses Mu-type opioid receptor (Homo sapiens, UniProt P35372). The assay is described as follows: SAR Analysis of Agonists of the MOR Receptor using an Image-Based Assay - Set 3. [Related pubchem assays (depositor defined):AID1777, AID1785, AID1786, AID1966, AID2133, AID2136, AID2284, AID2285, AID2352]. The format is functional.
Assay [15] addresses Kappa-type opioid receptor (Homo sapiens, UniProt P41145). Kind of assay: SAR analysis of small molecule agonists of the kappa opioid receptor via a luminescent beta-arrestin assay - Set 3. [Related pubchem assays (depositor defined):AID1777, AID1785, AID1786, AID1966, AID2133, AID2136, AID2284, AID2500]. The format is functional.

The source made the active and inactive calls.

Usually EC50 stands for the concentration that produces a half-maximal response. What is called AC50 is the midpoint of the concentration-response curve, whichever way the signal moves.

T3 sequence (Q01196 whole entry, the tested form may be a part): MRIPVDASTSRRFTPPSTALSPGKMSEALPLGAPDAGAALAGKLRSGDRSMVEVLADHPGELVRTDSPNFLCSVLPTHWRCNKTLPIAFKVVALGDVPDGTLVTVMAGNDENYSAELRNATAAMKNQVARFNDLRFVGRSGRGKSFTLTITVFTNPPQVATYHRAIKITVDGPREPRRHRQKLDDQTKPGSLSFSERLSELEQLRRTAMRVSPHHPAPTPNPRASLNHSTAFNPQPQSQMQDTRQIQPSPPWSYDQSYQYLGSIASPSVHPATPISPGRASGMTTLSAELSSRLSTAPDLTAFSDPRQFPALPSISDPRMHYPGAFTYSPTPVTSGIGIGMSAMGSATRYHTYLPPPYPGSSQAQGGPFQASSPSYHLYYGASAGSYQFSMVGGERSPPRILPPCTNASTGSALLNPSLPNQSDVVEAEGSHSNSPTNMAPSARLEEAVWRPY
T3 sequence (Q13951 whole entry, the tested form may be a part): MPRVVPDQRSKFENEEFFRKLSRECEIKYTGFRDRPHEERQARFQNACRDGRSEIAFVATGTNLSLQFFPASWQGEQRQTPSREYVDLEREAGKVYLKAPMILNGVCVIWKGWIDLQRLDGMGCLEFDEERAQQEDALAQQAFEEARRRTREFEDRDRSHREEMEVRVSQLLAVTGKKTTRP
T1 sequence (P11940 whole entry, the tested form may be a part): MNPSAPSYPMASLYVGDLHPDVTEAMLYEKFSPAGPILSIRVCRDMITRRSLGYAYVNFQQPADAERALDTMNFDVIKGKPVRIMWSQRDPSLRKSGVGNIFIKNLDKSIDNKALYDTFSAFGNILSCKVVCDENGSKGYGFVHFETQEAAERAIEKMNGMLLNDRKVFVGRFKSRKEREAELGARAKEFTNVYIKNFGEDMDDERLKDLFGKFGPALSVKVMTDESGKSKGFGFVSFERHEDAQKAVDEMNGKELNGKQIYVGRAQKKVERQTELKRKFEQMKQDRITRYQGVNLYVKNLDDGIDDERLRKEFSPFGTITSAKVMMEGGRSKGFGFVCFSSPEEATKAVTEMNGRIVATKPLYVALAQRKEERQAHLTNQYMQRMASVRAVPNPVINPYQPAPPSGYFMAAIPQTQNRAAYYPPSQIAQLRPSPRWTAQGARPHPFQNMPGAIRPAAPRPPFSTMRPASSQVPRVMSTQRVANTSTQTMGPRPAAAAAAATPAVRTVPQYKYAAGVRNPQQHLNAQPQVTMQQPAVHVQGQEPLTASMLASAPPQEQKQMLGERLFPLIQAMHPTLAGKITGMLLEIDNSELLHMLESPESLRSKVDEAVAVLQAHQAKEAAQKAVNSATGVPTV
Sequence of Mucolipin-3 (Q8TDD5 whole entry): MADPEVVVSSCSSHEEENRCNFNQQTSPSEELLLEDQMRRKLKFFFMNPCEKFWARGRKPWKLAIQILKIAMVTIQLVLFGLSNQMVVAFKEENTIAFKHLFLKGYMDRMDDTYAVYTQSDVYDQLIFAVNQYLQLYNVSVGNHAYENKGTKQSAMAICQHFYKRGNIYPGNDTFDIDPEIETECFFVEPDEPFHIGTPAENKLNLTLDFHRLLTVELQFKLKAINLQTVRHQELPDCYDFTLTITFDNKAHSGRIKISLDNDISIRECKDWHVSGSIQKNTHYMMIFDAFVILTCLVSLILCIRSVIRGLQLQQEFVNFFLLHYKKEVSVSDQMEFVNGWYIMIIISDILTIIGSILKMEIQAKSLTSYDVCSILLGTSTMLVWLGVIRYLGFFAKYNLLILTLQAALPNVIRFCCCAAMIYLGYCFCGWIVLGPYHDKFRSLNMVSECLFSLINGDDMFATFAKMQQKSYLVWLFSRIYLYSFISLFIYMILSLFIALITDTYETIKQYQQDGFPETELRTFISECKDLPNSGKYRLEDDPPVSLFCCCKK
Sequence of Lysine-specific demethylase 4A (O75164 whole entry): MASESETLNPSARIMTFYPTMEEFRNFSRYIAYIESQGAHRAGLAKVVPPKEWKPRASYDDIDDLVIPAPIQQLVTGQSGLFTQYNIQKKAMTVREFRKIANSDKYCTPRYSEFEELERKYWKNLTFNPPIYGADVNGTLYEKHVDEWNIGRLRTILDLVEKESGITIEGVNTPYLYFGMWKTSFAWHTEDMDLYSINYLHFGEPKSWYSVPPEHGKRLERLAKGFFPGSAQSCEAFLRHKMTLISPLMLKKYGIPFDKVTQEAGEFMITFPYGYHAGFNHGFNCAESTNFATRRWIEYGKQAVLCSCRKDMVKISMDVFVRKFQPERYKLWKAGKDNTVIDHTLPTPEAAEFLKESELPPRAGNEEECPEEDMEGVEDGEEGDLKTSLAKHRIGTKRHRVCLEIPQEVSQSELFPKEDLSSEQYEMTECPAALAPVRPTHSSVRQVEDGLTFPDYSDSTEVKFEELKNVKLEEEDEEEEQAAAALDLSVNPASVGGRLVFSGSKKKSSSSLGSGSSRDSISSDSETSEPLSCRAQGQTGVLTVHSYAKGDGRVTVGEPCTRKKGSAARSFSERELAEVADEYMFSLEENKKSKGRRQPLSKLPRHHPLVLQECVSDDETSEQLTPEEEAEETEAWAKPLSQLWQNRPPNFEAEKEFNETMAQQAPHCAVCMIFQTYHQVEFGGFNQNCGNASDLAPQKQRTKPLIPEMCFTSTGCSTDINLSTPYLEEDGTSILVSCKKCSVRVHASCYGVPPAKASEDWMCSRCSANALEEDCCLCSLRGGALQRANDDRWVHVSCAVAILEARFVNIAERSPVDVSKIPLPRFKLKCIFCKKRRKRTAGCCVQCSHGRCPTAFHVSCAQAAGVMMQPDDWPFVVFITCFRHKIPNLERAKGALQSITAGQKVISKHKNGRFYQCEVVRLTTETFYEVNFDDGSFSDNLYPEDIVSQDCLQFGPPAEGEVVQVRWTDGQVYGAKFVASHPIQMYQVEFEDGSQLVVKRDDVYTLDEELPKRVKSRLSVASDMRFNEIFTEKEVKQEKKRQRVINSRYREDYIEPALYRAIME
Sequence of Mu-type opioid receptor (P35372 whole entry): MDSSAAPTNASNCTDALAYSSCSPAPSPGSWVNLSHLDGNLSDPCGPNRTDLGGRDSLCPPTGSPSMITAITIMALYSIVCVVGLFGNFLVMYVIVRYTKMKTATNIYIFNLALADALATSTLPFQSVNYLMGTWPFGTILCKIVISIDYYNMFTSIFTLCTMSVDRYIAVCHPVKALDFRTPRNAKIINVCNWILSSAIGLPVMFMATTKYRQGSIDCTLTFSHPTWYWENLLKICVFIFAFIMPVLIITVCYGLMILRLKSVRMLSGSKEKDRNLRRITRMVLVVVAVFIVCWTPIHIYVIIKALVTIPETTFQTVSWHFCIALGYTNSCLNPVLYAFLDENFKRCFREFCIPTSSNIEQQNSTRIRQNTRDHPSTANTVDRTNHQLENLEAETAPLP
Sequence of Protein Tat (P04608 whole entry, the tested form may be a part): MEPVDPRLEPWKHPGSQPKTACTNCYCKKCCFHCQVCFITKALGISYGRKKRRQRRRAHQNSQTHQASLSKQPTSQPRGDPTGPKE
Sequence of Ion channel NompC (Q7T1G6 whole entry): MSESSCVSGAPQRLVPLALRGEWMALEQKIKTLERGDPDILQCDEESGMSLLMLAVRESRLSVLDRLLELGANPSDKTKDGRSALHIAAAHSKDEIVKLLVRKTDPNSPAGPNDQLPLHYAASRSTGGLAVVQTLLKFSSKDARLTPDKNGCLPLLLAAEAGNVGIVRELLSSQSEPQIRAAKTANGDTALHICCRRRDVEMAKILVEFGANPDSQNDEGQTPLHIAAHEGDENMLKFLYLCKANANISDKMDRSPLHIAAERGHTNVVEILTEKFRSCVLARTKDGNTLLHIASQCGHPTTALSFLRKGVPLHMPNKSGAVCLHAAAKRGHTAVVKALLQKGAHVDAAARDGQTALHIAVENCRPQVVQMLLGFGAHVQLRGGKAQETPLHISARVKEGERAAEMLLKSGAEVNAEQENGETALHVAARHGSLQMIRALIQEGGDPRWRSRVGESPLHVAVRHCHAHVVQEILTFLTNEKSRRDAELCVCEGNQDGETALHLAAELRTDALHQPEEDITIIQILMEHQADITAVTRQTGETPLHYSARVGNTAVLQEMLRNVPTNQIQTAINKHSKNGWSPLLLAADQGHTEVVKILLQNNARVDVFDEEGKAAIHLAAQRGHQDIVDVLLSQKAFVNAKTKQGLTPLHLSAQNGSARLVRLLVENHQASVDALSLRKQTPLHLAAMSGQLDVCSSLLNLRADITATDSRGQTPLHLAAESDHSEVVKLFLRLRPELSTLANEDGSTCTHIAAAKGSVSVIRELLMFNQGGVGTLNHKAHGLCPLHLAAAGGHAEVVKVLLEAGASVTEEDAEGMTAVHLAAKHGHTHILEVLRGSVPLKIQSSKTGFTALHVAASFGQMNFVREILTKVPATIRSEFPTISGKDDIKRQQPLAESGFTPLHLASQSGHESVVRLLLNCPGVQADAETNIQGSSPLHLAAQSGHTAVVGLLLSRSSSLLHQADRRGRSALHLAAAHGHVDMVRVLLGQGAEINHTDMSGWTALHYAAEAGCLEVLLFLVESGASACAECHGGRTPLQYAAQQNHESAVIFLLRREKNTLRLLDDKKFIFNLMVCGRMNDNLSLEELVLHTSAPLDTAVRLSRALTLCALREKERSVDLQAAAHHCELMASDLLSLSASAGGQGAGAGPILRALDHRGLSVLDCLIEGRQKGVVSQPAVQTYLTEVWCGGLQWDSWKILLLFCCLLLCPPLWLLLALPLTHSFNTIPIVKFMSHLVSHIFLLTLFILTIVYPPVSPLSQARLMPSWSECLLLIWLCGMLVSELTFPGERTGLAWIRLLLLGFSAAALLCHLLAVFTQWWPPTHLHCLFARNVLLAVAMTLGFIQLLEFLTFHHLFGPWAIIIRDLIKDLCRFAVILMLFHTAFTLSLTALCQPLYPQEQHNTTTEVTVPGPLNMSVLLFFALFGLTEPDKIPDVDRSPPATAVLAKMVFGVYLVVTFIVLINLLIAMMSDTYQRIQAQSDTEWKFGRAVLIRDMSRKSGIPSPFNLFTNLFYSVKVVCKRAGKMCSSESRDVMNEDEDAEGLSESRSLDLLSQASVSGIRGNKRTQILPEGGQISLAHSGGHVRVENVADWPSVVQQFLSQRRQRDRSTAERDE

For `O=C(Nc1ccc(S(=O)(=O)Nc2ccccc2)cc1)c1ccc(CN2CCOCC2)cc1`, the EC50 in [1] is > 29.9 µM (not active); in assay [3], > 29.9 µM (inactive). Moreover, the IC50 in assay [2] was 48.1 µM (inactive).

As to `COc1ccc(N2CCN(C(=O)CSc3nnc(-c4cccnc4)n3-c3ccccc3)CC2)cc1`, the AC50 in [4] was > 60 µM (inactive).

As to `COc1ccc(N2C3=C(CC4=C2CCCC4=O)C(=O)CCC3)cc1`, the IC50 is > 66 µM (inactive) in assay [5]; > 66 µM (inactive) in assay [6]; 8.05 µM (active) in assay [7]; 372 nM (active) in assay [8]; > 100 µM (active) in [9]; 17.7 µM (active) in [10].

Take `O=C1C(Cl)=C(N2CCOCC2)C(=O)N1c1ccccc1`: the IC50 in assay [11] is > 50 µM (inactive); in [12], 18.7 µM (active).

As to `Cc1ccccc1CSc1nnc(-c2ccccn2)n1Cc1cccs1`, the EC50 in assay [13] was > 32 µM (inactive); in assay [14], > 32 µM (inactive); in [15] it was 14.7 µM (inactive).

(Values after ChEMBL document CHEMBL1201862, “PubChem BioAssay data set” (2004).)
